Several values for one entry are separate records, joined by “and”; a condition that tells them apart may be missing. Equal values may be shown once. Toxic doses and inconclusive results are not listed.
Test system: L1210 leukemia ip in BDF1 mice, survival T/C
Assay: NCI In Vivo Anticancer Drug Screen. Data for tumor model L1210 Leukemia (intraperitoneal) in B6D2F1 (BDF1) mice
Conditions: endpoint: mean survival time, higher = longer survival
Outline: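 Mice bearing the transplanted tumor received compound or vehicle. Survival of the treated group was divided by that of the vehicle-treated control group to give the ratio.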

[1] = dose: 100.0 mg/kg/injection, schedule: Q01DX009 (ip), vehicle: saline with Tween-80
[2] = dose: 200.0 mg/kg/injection, schedule: Q01DX009 (ip), vehicle: saline with Tween-80
[3] = dose: 400.0 mg/kg/injection, schedule: Q01DX009 (ip), vehicle: saline with Tween-80
[4] = dose: 100.0 mg/kg/injection, schedule: Q04DX003 (ip), vehicle: saline with Tween-80
[5] = dose: 200.0 mg/kg/injection, schedule: Q04DX003 (ip), vehicle: saline with Tween-80
[6] = dose: 400.0 mg/kg/injection, schedule: Q04DX003 (ip), vehicle: saline with Tween-80
[7] = dose: 100.0 mg/kg/injection, schedule: Q01DX001 (ip), vehicle: saline
[8] = dose: 200.0 mg/kg/injection, schedule: Q01DX001 (ip), vehicle: saline
[9] = dose: 400.0 mg/kg/injection, schedule: Q01DX001 (ip), vehicle: saline

COc1nc(N)nc2c1nnn2C1OC(CO)C(O)C1O (stereo not given)
T/C (dose: 44.0 mg/kg/injection, schedule: Q01DX001 (ip), vehicle: Klucel (hydroxypropylcellulose) (HPC)): 108 % of control
T/C (dose: 66.0 mg/kg/injection, schedule: Q01DX001 (ip), vehicle: Klucel (hydroxypropylcellulose) (HPC)): 103 % of control
T/C (dose: 150.0 mg/kg/injection, schedule: Q01DX001 (ip), vehicle: Klucel (hydroxypropylcellulose) (HPC)): 122 % of control

O=C(c1ccccc1[N+](=O)[O-])C(Br)C(Br)c1ccc2c(c1)OCO2 (stereo not given)
T/C [1]: 97 % of control and 87 % of control
T/C [2]: 94 % of control and 95 % of control
T/C [3]: 97 % of control

CCOC(=O)C1=C(O)c2c(sc(C)c2C)N(S(=O)(=O)c2ccc(C)cc2)CC1
T/C (dose: 50.0 mg/kg/injection, schedule: Q01DX009 (ip), vehicle: saline with Tween-80): 93 % of control
T/C (dose: 50.0 mg/kg/injection, schedule: Q04DX003 (ip), vehicle: saline with Tween-80): 97 % of control
T/C [1]: 90 % of control
T/C [4]: 101 % of control
T/C [2]: 96 % of control
T/C [5]: 93 % of control
T/C [6]: 98 % of control

COc1cc(C=NC(C)(C)CO)cc(OC)c1
T/C (dose: 100.0 mg/kg/injection, schedule: Q01DX001 (ip), vehicle: alcohol): 88 % of control
T/C (dose: 100.0 mg/kg/injection, schedule: Q04DX003 (ip), vehicle: alcohol): 95 % of control
T/C (dose: 200.0 mg/kg/injection, schedule: Q01DX001 (ip), vehicle: alcohol): 96 % of control
T/C (dose: 200.0 mg/kg/injection, schedule: Q04DX003 (ip), vehicle: alcohol): 97 % of control
T/C (dose: 400.0 mg/kg/injection, schedule: Q01DX001 (ip), vehicle: alcohol): 96 % of control
T/C (dose: 400.0 mg/kg/injection, schedule: Q04DX003 (ip), vehicle: alcohol): 100 % of control

CC1(C)N=C(N)N=C(N)N1c1ccc(OCCOc2ccc(NC(=O)CBr)cc2)cc1
T/C (dose: 120.0 mg/kg/injection, schedule: Q01DX009 (ip), vehicle: saline): 124 % of control
T/C (dose: 176.0 mg/kg/injection, schedule: Q01DX009 (ip), vehicle: saline): 112 % of control
T/C (dose: 266.0 mg/kg/injection, schedule: Q01DX009 (ip), vehicle: saline): 107 % of control
T/C (dose: 400.0 mg/kg/injection, schedule: Q01DX009 (ip), vehicle: saline): 98 % of control

COc1ccc2c(c1O)C13CCN(C)C(C2)C1CCC1(C3)OCCO1 (stereo not given)
T/C [7]: 95 % of control
T/C (dose: 100.0 mg/kg/injection, schedule: Q01DX009 (ip), vehicle: saline): 100 % of control
T/C [8]: 104 % of control
T/C (dose: 200.0 mg/kg/injection, schedule: Q01DX009 (ip), vehicle: saline): 103 % of control
T/C [9]: 98 % of control

CCOC1(OCC)C(C)C(c2ccccc2)C(c2ccccc2)C1C (stereo not given)
T/C (dose: 75.0 mg/kg/injection, schedule: Q01DX001 (ip), vehicle: saline): 95 % of control
T/C (dose: 150.0 mg/kg/injection, schedule: Q01DX001 (ip), vehicle: saline): 90 % of control
T/C (dose: 300.0 mg/kg/injection, schedule: Q01DX001 (ip), vehicle: saline): 89 % of control

OCC[N+]12CN3CN(CN(C3)C1)C2
T/C (dose: 100.0 mg/kg/injection, schedule: Q04DX002 (ip), vehicle: saline): 113 % of control
T/C (dose: 200.0 mg/kg/injection, schedule: Q04DX002 (ip), vehicle: saline): 106 % of control
T/C (dose: 400.0 mg/kg/injection, schedule: Q04DX002 (ip), vehicle: saline): 106 % of control

O=C1CC(c2cccc(S(=O)(=O)O)c2)=NN1c1ccc([N+](=O)[O-])cn1
T/C (dose: 12.5 mg/kg/injection, schedule: Q04DX003 (ip), vehicle: saline): 95 % of control
T/C (dose: 25.0 mg/kg/injection, schedule: Q04DX003 (ip), vehicle: saline): 95 % of control
T/C (dose: 50.0 mg/kg/injection, schedule: Q04DX003 (ip), vehicle: saline): 95 % of control

O=c1oc2ccc(N=Cc3ccc4c(c3)OCO4)cc2c2ccccc12
T/C (dose: 100.0 mg/kg/injection, schedule: Q01DX001 (ip), vehicle: other): 91 % of control
T/C (dose: 200.0 mg/kg/injection, schedule: Q01DX001 (ip), vehicle: other): 93 % of control
T/C (dose: 400.0 mg/kg/injection, schedule: Q01DX001 (ip), vehicle: other): 93 % of control

O=C1NC(c2ccccc2)(c2ccccc2)C(=O)N1CNc1ccc(Br)cc1
T/C (dose: 100.0 mg/kg/injection, schedule: Q04DX003 (ip), vehicle: Klucel (hydroxypropylcellulose) (HPC)): 89 % of control
T/C (dose: 200.0 mg/kg/injection, schedule: Q04DX003 (ip), vehicle: Klucel (hydroxypropylcellulose) (HPC)): 89 % of control
T/C (dose: 400.0 mg/kg/injection, schedule: Q04DX003 (ip), vehicle: Klucel (hydroxypropylcellulose) (HPC)): 92 % of control

O=C1NC(=O)C(Nc2ccccc2)(c2ccccc2)N1 (stereo not given)
T/C (dose: 100.0 mg/kg/injection, schedule: Q01DX001 (ip), vehicle: Klucel (hydroxypropylcellulose) (HPC)): 90 % of control
T/C (dose: 200.0 mg/kg/injection, schedule: Q01DX001 (ip), vehicle: Klucel (hydroxypropylcellulose) (HPC)): 95 % of control

CCCCC(C#N)(CCCC)C(=O)OCC
T/C [4]: 93 % of control
T/C [5]: 98 % of control

C=C1C(=O)OCC2C(C(=O)O)=CC3C(C)C(C)=CC123 (stereo not given)
T/C (dose: 20.0 mg/kg/injection, schedule: Q01DX009 (ip), vehicle: saline with Tween-80): 108 % of control
T/C (dose: 40.0 mg/kg/injection, schedule: Q01DX009 (ip), vehicle: saline with Tween-80): 111 % of control

OCC(O)COCc1ccccc1 (stereo not given)
T/C [4]: 109 % of control
T/C [5]: 104 % of control
T/C [6]: 106 % of control

COc1cc(Oc2ccc(OC)c(OC)c2)c(C=O)cc1Br
T/C (dose: 100.0 mg/kg/injection, schedule: Q04DX003 (ip), vehicle: acetone): 96 % of control
T/C (dose: 200.0 mg/kg/injection, schedule: Q04DX003 (ip), vehicle: acetone): 97 % of control
T/C (dose: 400.0 mg/kg/injection, schedule: Q04DX003 (ip), vehicle: acetone): 97 % of control

N=C1SSC(=S)C1C(N)=O (stereo not given)
T/C (dose: 50.0 mg/kg/injection, schedule: Q01DX001 (ip), vehicle: carboxymethylcellulose (CMC)): 94 % of control
T/C (dose: 100.0 mg/kg/injection, schedule: Q01DX001 (ip), vehicle: carboxymethylcellulose (CMC)): 96 % of control
T/C (dose: 200.0 mg/kg/injection, schedule: Q01DX001 (ip), vehicle: carboxymethylcellulose (CMC)): 100 % of control
T/C (dose: 400.0 mg/kg/injection, schedule: Q01DX001 (ip), vehicle: carboxymethylcellulose (CMC)): 100 % of control

O=c1[nH]c(=S)[nH]c(=S)[nH]1
T/C (dose: 100.0 mg/kg/injection, schedule: Q01DX Z (ip), vehicle: methylcellulose (MC)): 97 % of control
T/C (dose: 200.0 mg/kg/injection, schedule: Q01DX Z (ip), vehicle: methylcellulose (MC)): 104 % of control

Nc1ncn(C2CC(O)C(CO)O2)c(=O)n1 (stereo not given)
T/C (dose: 0.05 mg/kg/injection, schedule: Q01DX005 (ip), vehicle: saline): 155 % of control
T/C (dose: 0.12 mg/kg/injection, schedule: Q01DX005 (ip), vehicle: saline): 154 % of control
T/C (dose: 0.78 mg/kg/injection, schedule: Q01DX005 (ip), vehicle: saline): 94 % of control
T/C (dose: 1.56 mg/kg/injection, schedule: Q01DX005 (ip), vehicle: saline): 98 % of control
T/C (dose: 1.56 mg/kg/injection, schedule: Q01DX009 (ip), vehicle: saline): 114 % of control
T/C (dose: 3.12 mg/kg/injection, schedule: Q01DX005 (ip), vehicle: saline): 100 % of control
T/C (dose: 3.12 mg/kg/injection, schedule: Q01DX009 (ip), vehicle: saline): 100 % of control
T/C (dose: 6.25 mg/kg/injection, schedule: Q01DX009 (ip), vehicle: saline): 86 % of control
T/C [7]: 171 % of control
T/C (dose: 100.0 mg/kg/injection, schedule: Q01DX005 (ip), vehicle: saline): 167 % of control and 174 % of control
T/C (dose: 200.0 mg/kg/injection, schedule: Q01DX005 (ip), vehicle: saline): 174 % of control and 198 % of control
T/C (dose: 300.0 mg/kg/injection, schedule: Q04DX003 (ip), vehicle: saline): 167 % of control

O=C(O)c1cscn1
T/C [7]: 93 % of control
T/C [1]: 101 % of control and 90 % of control
T/C (dose: 100.0 mg/kg/injection, schedule: Q04DX002 (ip), vehicle: saline with Tween-80): 97 % of control and 107 % of control
T/C [4]: 108 % of control
T/C [8]: 103 % of control
T/C [2]: 95 % of control and 97 % of control
T/C (dose: 200.0 mg/kg/injection, schedule: Q04DX002 (ip), vehicle: saline with Tween-80): 97 % of control and 106 % of control
T/C [5]: 98 % of control
T/C [9]: 93 % of control
T/C [3]: 92 % of control
T/C (dose: 400.0 mg/kg/injection, schedule: Q04DX002 (ip), vehicle: saline with Tween-80): 102 % of control and 92 % of control

O=C1OC(=O)C2CC(Cl)C(Cl)CC12 (stereo not given)
T/C [1]: 89 % of control
T/C [4]: 89 % of control
T/C [2]: 86 % of control
T/C [5]: 100 % of control
T/C [3]: 89 % of control
T/C [6]: 104 % of control

Source: PubChem BioAssay AID248 (DTP/NCI, 2004)
